From patent US20110281812A1, “Compounds” (priority 2009, published 2011)
Where two headings read alike, the source gives them in different places.

Key:
male BALB/cJ mice = test: Lung neutrophilia induced by bacterial lipopolysaccharide in male BALB/cJ mice - Method B; format: in vivo; conditions: Mus musculus, ip, 24 h, single dose of 100 mg/kg i.p., vs LPS challenged untreated animals
Protocol: For intraperitoneal administration (i.p.) compounds were dissolved in a final concentration of 10 mg/mL. The required amount of compound was first dissolved in dimethylsulfoxide (DMSO, Sigma) and then diluted with 0.5% (w/v) methyl-cellulose so that the final DMSO concentration was 5% (v/v). The obtained solution was applied in a dose volume of 0.1 mL per 10 g of animal. Therefore, the compound dose was 100 mg/kg.
Male BALB/cJ mice (Charles River, Germany), with an average weight of ˜25 g were randomly grouped (n=8 in testing group, 10 in positive control and 6-8 in negative control). Mice received intraperitoneally (i.p.) a single dose of 100 mg/kg of test compound. Two hours after administration, 0.4 μg of LPS (from Escherichia coli serotype 0111:B4, Sigma), dissolved in sterile saline (0.9% NaCl) in a volume of 50 μL, was intranasally administered to all experimental groups except the negative control group, which received the same volume of vehicle (saline). Animals were sacrificed approximately 24 hours after application of LPS in order to obtain bronchoalveolar lavage fluid (BALF), which was used to determine absolute number of cells and the percentage of neutrophils. […] In some experiments neutrophil levels in BALF were assessed by measurement of concentration of a neutrophil-specific enzyme myeloperoxidase (MPO). Results are then expressed as percentage of decrease in myeloperoxidase (MPO) concentration measured in BALF lysates of treated animals compared to positive control (Mouse MPO ELISA Kit, Hycult biotechnology, Nederlands). For this purpose, BALF was sonicated after addition of 1.5% Triton-X-100 (Pharmacia Biotech) in Milli-Q water and frozen at −80° C. until analysed.

[1] = test system: IL-6 production in LPS-stimulated murine spleenocytes; test: Inhibition of IL-6 production in LPS-stimulated murine spleenocytes in vitro; format: cell-based; conditions: Mus musculus, 50 μM concentration of the compound, read-out: inhibition of interleukin-6 (IL-6) production
Protocol: Test and reference substances used in an in vitro assays were dissolved in dimethyl sulfoxide (DMSO) (Sigma Chemical Co., USA) at a concentration of 50 mM and were further diluted to test concentrations in appropriate cell culture medium.
After cervical dislocation, mouse spleens were removed using sterile dissection tools. Spleens were transferred to a pre-wetted cell strainer in a 50 mL sterile conical tube and cell suspension was made by gentle puddle. Cells were centrifuged (20 min, 300×g) and resuspended in 2 mL of sterile phosphate buffered saline (PBS) (Sigma Chemical Co., USA). Red blood cells were lysed by addition of 3 mL of sterile water and occasionally gentle shaking for 1 minute. Afterwards, the tube was filled to 40 mL with DMEM medium and centrifuged (20 min, 300×g). Cells were resuspended in DMEM supplemented with 1% FBS and seeded in a 24-well plate, 1×10^6 cells per mL medium.
Final concentrations of 50 μM, 25 μM, 12.5 μM, 6.3 μM and 3.1 μM of test compounds were prepared by diluting a 50 mM DMSO stock in Dulbecco's modified Eagle medium (DMEM) (Gibco, USA) supplemented with 1% heat inactivated fetal bovine serum (FBS) (BioWest, Ringmer, United Kingdom).
Cells were pre-incubated with the test compounds for 3 h at 37° C., in an atmosphere of 5% CO2 and 90% humidity. Afterwards, cells were stimulated with 1 μg/mL lipopolysaccharide (LPS, E. coli 0111:B4, Sigma Chemical Co., USA) and incubated overnight. Concentration of IL-6 was determined in cell supernatants by sandwich ELISA using capture and detection antibodies (R&D Systems, USA) according to the manufacturer's recommendations.
Inhibition (as percentage) was calculated using the following formula:
% inhibition=[1−(concentration of IL-6 in sample−concentration of IL-6 in negative control)/(concentration of IL-6 in positive control−concentration of IL-6 in negative control)]×100.
The positive control refers to LPS-stimulated samples that were not preincubated with the compounds.
The negative control refers to unstimulated and untreated samples.

[2] = Neutrophil, read-out: inhibition of number of neutrophils or decrease in myeloperoxidase concentration in BALF
[3] = read-out: inhibition of total cell number in BALF

SMILES: CC[C@H]1OC(=O)[C@H](C)[C@@H](O[C@H]2C[C@@](C)(OC)[C@@H](O)[C@H](C)O2)[C@H](C)[C@@H](O[C@@H]2O[C@H](C)C[C@H](N(C)C)[C@H]2OCCCNC(=O)c2cnc(C)cn2)[C@](C)(O)C[C@@H](C)CN(C)[C@H](C)[C@@H](O)[C@]1(C)O [Example 18, 2′-O-(3-{[(5-Methyl-2-pyrazinyl)carbonyl]amino}propyl)-9-deoxo-9a-methyl-9a-aza-9a-homoerythromycin A]
- inhibition in vivo at 100 mg/kg (male BALB/cJ mice; [2]): > 50%
- inhibition in vivo at 100 mg/kg (male BALB/cJ mice; [3]): > 50%
- inhibition at 50 µM [1]: > 40%

SMILES: CC[C@H]1OC(=O)[C@H](C)[C@@H](O[C@H]2C[C@@](C)(OC)[C@@H](O)[C@H](C)O2)[C@H](C)[C@@H](O[C@@H]2O[C@H](C)C[C@H](N(C)C)[C@H]2OCCCNC(=O)C2CCOCC2)[C@](C)(O)C[C@@H](C)CN(C)[C@H](C)[C@@H](O)[C@]1(C)O [Example 25, 2′-1-{3-[(Tetrahydro-2H-pyran-4-ylcarbonyl)amino]propyl}-9-deoxo-9a-methyl-9a-aza-9a-homoerythromycin A]
- inhibition in vivo at 100 mg/kg (male BALB/cJ mice; [2]): > 50%
- inhibition in vivo at 100 mg/kg (male BALB/cJ mice; [3]): > 50%
- inhibition at 50 µM [1]: > 40%

SMILES: CC[C@H]1OC(=O)[C@H](C)[C@@H](O[C@H]2C[C@@](C)(OC)[C@@H](O)[C@H](C)O2)[C@H](C)[C@@H](O[C@@H]2O[C@H](C)C[C@H](N(C)C)[C@H]2OCCCNC(=O)CCCC(=O)OC)[C@](C)(O)C[C@@H](C)CN(C)[C@H](C)[C@@H](O)[C@]1(C)O [Example 14, 2′-O-(3-{[5-(Methyloxy)-5-oxopentanoyl]amino}propyl)-9-deoxo-9a-methyl-9a-aza-9a-homoerythromycin A]
- inhibition in vivo at 100 mg/kg (male BALB/cJ mice; [2]): > 30%
- inhibition in vivo at 100 mg/kg (male BALB/cJ mice; [3]): > 30%
- inhibition at 50 µM [1]: > 40%

SMILES: CC[C@H]1OC(=O)[C@H](C)[C@@H](O[C@H]2C[C@@](C)(OC)[C@@H](O)[C@H](C)O2)[C@H](C)[C@@H](O[C@@H]2O[C@H](C)C[C@H](N(C)C)[C@H]2OCCCNC(=O)CCC(=O)OC)[C@](C)(O)C[C@@H](C)CN(C)[C@H](C)[C@@H](O)[C@]1(C)O [Example 13, 2′-O-(3-{[4-(Methyloxy)-4-oxobutanoyl]amino}propyl)-9-deoxo-9a-methyl-9a-aza-9a-homoerythromycin A]
- inhibition in vivo at 100 mg/kg (male BALB/cJ mice; [2]): > 50%
- inhibition in vivo at 100 mg/kg (male BALB/cJ mice; [3]): > 50%
- inhibition at 50 µM [1]: > 40%

SMILES: CC[C@H]1OC(=O)[C@H](C)[C@@H](O[C@H]2C[C@@](C)(OC)[C@@H](O)[C@H](C)O2)[C@H](C)[C@@H](O[C@@H]2O[C@H](C)C[C@H](N(C)C)[C@H]2OCCCNC(=O)c2cn(C)nc2C(F)(F)F)[C@](C)(O)C[C@@H](C)CN(C)[C@H](C)[C@@H](O)[C@]1(C)O [Example 28, 2′-O-[3-({[1-Methyl-3-(trifluoromethyl)-1H-pyrazol-4-yl]carbonyl}amino)propyl]-9-deoxo-9a-methyl-9a-aza-9a-homoerythromycin A]
- inhibition at 50 µM [1]: > 40%

SMILES: CC[C@H]1OC(=O)[C@H](C)[C@@H](O[C@H]2C[C@@](C)(OC)[C@@H](O)[C@H](C)O2)[C@H](C)[C@@H](O[C@@H]2O[C@H](C)C[C@H](N(C)C)[C@H]2OCCCNC(=O)c2ccncc2)[C@](C)(O)C[C@@H](C)CN(C)[C@H](C)[C@@H](O)[C@]1(C)O [Example 6, 2′-O-{3-[(4-Pyridinylcarbonyl)amino]propyl}-9-deoxo-9a-methyl-9a-aza-9a-homoerythromycin A]
- inhibition at 50 µM [1]: > 40%

SMILES: CC[C@H]1OC(=O)[C@H](C)[C@@H](O[C@H]2C[C@@](C)(OC)[C@@H](O)[C@H](C)O2)[C@H](C)[C@@H](O[C@@H]2O[C@H](C)C[C@H](N(C)C)[C@H]2OCCCNC(=O)CN(C)C)[C@](C)(O)C[C@@H](C)CN(C)[C@H](C)[C@@H](O)[C@]1(C)O [Example 7, 2′-O-{3-[(N,N-Dimethylglycyl)amino]propyl}-9-deoxo-9a-methyl-9a-aza-9a-homoerythromycin A]
- inhibition in vivo at 100 mg/kg (male BALB/cJ mice; [2]): > 30%
- inhibition in vivo at 100 mg/kg (male BALB/cJ mice; [3]): > 30%
- inhibition at 50 µM [1]: > 40%

SMILES: CC[C@H]1OC(=O)[C@H](C)[C@@H](O[C@H]2C[C@@](C)(OC)[C@@H](O)[C@H](C)O2)[C@H](C)[C@@H](O[C@@H]2O[C@H](C)C[C@H](N(C)C)[C@H]2OCCCNC(=O)c2nccnc2N)[C@](C)(O)C[C@@H](C)CN(C)[C@H](C)[C@@H](O)[C@]1(C)O [Example 37, 2′-O-(3-{[(3-Amino-2-pyrazinyl)carbonyl]amino}propyl)-9-deoxo-9a-methyl-9a-aza-9a-homoerythromycin A]
- inhibition at 50 µM [1]: > 40%

SMILES: CC[C@H]1OC(=O)[C@H](C)[C@@H](O[C@H]2C[C@@](C)(OC)[C@@H](O)[C@H](C)O2)[C@H](C)[C@@H](O[C@@H]2O[C@H](C)C[C@H](N(C)C)[C@H]2OCCCNC(=O)CC(C)C)[C@](C)(O)C[C@@H](C)CN(C)[C@H](C)[C@@H](O)[C@]1(C)O [Example 41, 2′-O-{3-[(3-Methylbutanoyl)amino]propyl}-9-deoxo-9a-methyl-9a-aza-9a-homoerythromycin A]
- inhibition at 50 µM [1]: > 40%

SMILES: CC[C@H]1OC(=O)[C@H](C)[C@@H](O[C@H]2C[C@@](C)(OC)[C@@H](O)[C@H](C)O2)[C@H](C)[C@@H](O[C@@H]2O[C@H](C)C[C@H](N(C)C)[C@H]2OCCCNC(=O)c2cc(O)ccc2O)[C@](C)(O)C[C@@H](C)CN(C)[C@H](C)[C@@H](O)[C@]1(C)O [Example 32, 2′-O-{3-[(2,5-Dihydroxyphenylcarbonyl)amino]propyl}-9-deoxo-9a-methyl-9a-aza-9a-homoerythromycin A]
- inhibition at 50 µM [1]: > 40%

SMILES: CC[C@H]1OC(=O)[C@H](C)[C@@H](O[C@H]2C[C@@](C)(OC)[C@@H](O)[C@H](C)O2)[C@H](C)[C@@H](O[C@@H]2O[C@H](C)C[C@H](N(C)C)[C@H]2OCCCNC(=O)c2ccc(N)cc2O)[C@](C)(O)C[C@@H](C)CN(C)[C@H](C)[C@@H](O)[C@]1(C)O [Example 33, 2′-O-(3-{[(4-Amino-2-hydroxyphenyl)carbonyl]amino}propyl)-9-deoxo-9a-methyl-9a-aza-9a-homoerythromycin A]
- inhibition at 50 µM [1]: > 40%

SMILES: CC[C@H]1OC(=O)[C@H](C)[C@@H](O[C@H]2C[C@@](C)(OC)[C@@H](O)[C@H](C)O2)[C@H](C)[C@@H](O[C@@H]2O[C@H](C)C[C@H](N(C)C)[C@H]2OCCCNC(=O)[C@@H](N)CCSC)[C@](C)(O)C[C@@H](C)CN(C)[C@H](C)[C@@H](O)[C@]1(C)O [Example 12, 2′-O-[3-(L-methionylamino)propyl]-9-deoxo-9a-methyl-9a-aza-9a-homoerythromycin A]
- inhibition at 50 µM [1]: > 40%

SMILES: CC[C@H]1OC(=O)[C@H](C)[C@@H](O[C@H]2C[C@@](C)(OC)[C@@H](O)[C@H](C)O2)[C@H](C)[C@@H](O[C@@H]2O[C@H](C)C[C@H](N(C)C)[C@H]2OCCCNC(=O)c2cnccn2)[C@](C)(O)C[C@@H](C)CN(C)[C@H](C)[C@@H](O)[C@]1(C)O [Example 23, 2′-O-{3-[(2-Pyrazinylcarbonyl)amino]propyl}-9-deoxo-9a-methyl-9a-aza-9a-homoerythromycin A]
- inhibition at 50 µM [1]: > 40%

SMILES: CC[C@H]1OC(=O)[C@H](C)[C@@H](O[C@H]2C[C@@](C)(OC)[C@@H](O)[C@H](C)O2)[C@H](C)[C@@H](O[C@@H]2O[C@H](C)C[C@H](N(C)C)[C@H]2OCCCNC(=O)c2ccc(C)nc2Cl)[C@](C)(O)C[C@@H](C)CN(C)[C@H](C)[C@@H](O)[C@]1(C)O [Example 35, 2′-O-(3-{[(2-Chloro-6-methyl-3-pyridinyl)carbonyl]amino}propyl)-9-deoxo-9a-methyl-9a-aza-9a-homoerythromycin A]
- inhibition at 50 µM [1]: > 40%
